Measurements reported in PubChem BioAssay (NCI).
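Dose response: 5 concentrations. Exposure: 48 h. Format: 96-well plates. Endpoint: linear interpolation; highest concentration if not reached. Here, GI50 denotes the concentration required for 50% inhibition of growth. TGI is the concentration that stops growth completely.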

Experiments:
Test in all cases: NCI-60 cell line screen, 48 h
[1] = tested on: OVCAR-8 ovarian
[2] = tested on: A498 renal
[3] = tested on: SNB-75 CNS
[4] = tested on: OVCAR-4 ovarian
[5] = tested on: MDA-MB-435
[6] = tested on: SK-MEL-2 melanoma
[7] = tested on: COLO 205 colon
[8] = tested on: MDA-MB-231 breast
[9] = tested on: TK-10 renal
[10] = tested on: SK-OV-3 ovarian
[11] = tested on: SK-MEL-5 melanoma
[12] = tested on: NCI/ADR-RES ovarian
[13] = tested on: SN12C renal
[14] = tested on: HCT-116 colon
[15] = tested on: T-47D breast
[16] = tested on: NCI-H23 lung
[17] = tested on: SK-MEL-28 melanoma
[18] = tested on: MALME-3M melanoma
[19] = tested on: UACC-62 melanoma
[20] = tested on: HOP-62 NSCLC
[21] = tested on: UACC-257 melanoma
[22] = tested on: DU-145 prostate
[23] = tested on: SNB-19 CNS
[24] = tested on: SF-268 CNS
[25] = tested on: HOP-92 NSCLC
[26] = tested on: LOX IMVI melanoma
[27] = tested on: A549 NSCLC
[28] = tested on: KM12 colon
[29] = tested on: SF-295 CNS
[30] = tested on: CCRF-CEM leukemia
[31] = tested on: HT29 colon
[32] = tested on: HS 578T breast
[33] = tested on: IGROV1 ovarian
[34] = tested on: SF-539 CNS
[35] = tested on: NCI-H226 lung
[36] = tested on: UO-31 renal
[37] = tested on: PC-3 prostate
[38] = tested on: RPMI-8226 leukemia
[39] = tested on: K-562 leukemia
[40] = tested on: HCT-15 colon
[41] = tested on: ACHN renal
[42] = tested on: 786-0 renal
[43] = tested on: U251 CNS
[44] = tested on: MCF7 breast
[45] = tested on: MOLT-4 leukemia
[46] = tested on: HL-60(TB) leukemia
[47] = tested on: BT-549 breast
[48] = tested on: SW-620 colon
[49] = tested on: HCC-2998 colon
[50] = tested on: NCI-H522 lung
[51] = tested on: CAKI-1 renal
[52] = tested on: NCI-H460 lung
[53] = tested on: M14 melanoma
[54] = tested on: OVCAR-5 ovarian
[55] = tested on: SR leukemia
[56] = tested on: OVCAR-3 ovarian

## CN(C)CCCNCc1ccc(-c2ccc(F)c(Cl)c2)o1
[1]
  GI50: 16.2 µM
  TGI: 36.5 µM
[2]
  GI50: 3.22 µM
  TGI: 18.7 µM
[3]
  GI50: 1.23 µM
  TGI: 18.1 µM
[4]
  GI50: 13 µM
  TGI: 35.8 µM
[5]
  GI50: 5.58 µM
  TGI: 20.5 µM
[6]
  GI50: 15.9 µM
  TGI: 31.2 µM
[7]
  GI50: 4.52 µM
  TGI: 15.5 µM
[8]
  GI50: 9.89 µM
  TGI: 22.3 µM
[9]
  GI50: 16.3 µM
  TGI: 31.5 µM
[10]
  GI50: 16.9 µM
  TGI: 31.1 µM
[11]
  GI50: 3.69 µM
  TGI: 13.9 µM
[12]
  GI50: 15.7 µM
  TGI: 33.4 µM
[13]
  GI50: 12.1 µM
  TGI: 26.6 µM
[14]
  GI50: 8.33 µM
  TGI: 25 µM
[15]
  GI50: 11.8 µM
  TGI: 28.3 µM
[16]
  GI50: 14.7 µM
  TGI: 31.5 µM
[17]
  GI50: 10.2 µM
  TGI: 22.1 µM
[18]
  GI50: 16 µM
  TGI: 33.5 µM
[19]
  GI50: 1.88 µM
  TGI: 3.79 µM
[20]
  GI50: 14.5 µM
  TGI: 28.2 µM
[21]
  GI50: 3.81 µM
  TGI: 13.8 µM
[22]
  GI50: 16.6 µM
  TGI: 30.6 µM
[23]
  GI50: 15.3 µM
  TGI: 32.8 µM
[24]
  GI50: 12.1 µM
  TGI: 24.8 µM
[25]
  GI50: 3.06 µM
  TGI: 20 µM
[26]
  GI50: 5.23 µM
  TGI: 18.2 µM
[27]
  GI50: 16.1 µM
  TGI: 31.8 µM
[28]
  GI50: 14.5 µM
  TGI: 29.2 µM
[29]
  GI50: 14.3 µM
  TGI: 31.2 µM
[30]
  GI50: 9.71 µM
  TGI: 26.3 µM
[31]
  GI50: 6.18 µM
  TGI: 20.4 µM
[32]
  GI50: 10.3 µM
  TGI: 26.8 µM
[33]
  GI50: 13.5 µM
  TGI: 32.2 µM
[34]
  GI50: 12.9 µM
  TGI: 27.9 µM
[35]
  GI50: 16.8 µM
  TGI: 35 µM
[36]
  GI50: 12.3 µM
  TGI: 26.9 µM
[37]
  GI50: 12.2 µM
  TGI: 26.5 µM
[38]
  GI50: 10.7 µM
  TGI: 29.9 µM
[39]
  GI50: 3.06 µM
  TGI: 10.2 µM
[40]
  GI50: 12.2 µM
  TGI: 32.4 µM
[41]
  GI50: 15.9 µM
  TGI: 32.7 µM
[42]
  GI50: 10.8 µM
  TGI: 23.7 µM
[43]
  GI50: 14.4 µM
  TGI: 30.7 µM
[44]
  GI50: 10.1 µM
  TGI: 23.4 µM
[45]
  GI50: 11.5 µM
  TGI: 28 µM
[46]
  GI50: 14.1 µM
  TGI: 30.7 µM
[47]
  GI50: 11.8 µM
  TGI: 26 µM
[48]
  GI50: 14 µM
  TGI: 30.3 µM
[49]
  GI50: 13 µM
  TGI: 25.9 µM
[50]
  GI50: 13.6 µM
  TGI: 30 µM
[51]
  GI50: 12.6 µM
  TGI: 27.3 µM
[52]
  GI50: 14.3 µM
  TGI: 29.8 µM
[53]
  GI50: 7.2 µM
  TGI: 22 µM
[54]
  GI50: 15.5 µM
  TGI: 33.6 µM
[55]
  GI50: 2.96 µM
  TGI: 8.37 µM
[56]
  GI50: 15.4 µM
  TGI: 29.8 µM
